Reference: patent US20100137398A1, “USE OF HDAC INHIBITORS FOR THE TREATMENT OF GASTROINTESTINAL CANCERS” (NOVARTIS AG, priority 2007, published 2010)

How the values were obtained:
[1] = test system: Colo205 colon cancer xenograft; test: Colo205 colon cancer xenograft model, tumor growth inhibition and delay; assay type: in vivo, Female athymic nude mice; settings: LBH589 30 mg/kg iv Mon/Wed/Fri for 3 weeks, 5-FU 75 mg/kg ip once a week for 3 weeks, or both
Experimental: Female athymic nude mice-were implanted subcutaneously with Col6205 colon cancer cells. When tumors reached a medan tumor volume of 220 mm3, mice were randomized into groups of 10 mice. Mice were treated with LBH589 at 30 mg/kg intravenously on Monday, Wednesday, Friday per week for 3 weeks, 75 mg/kg of 5-Fluorouracil intraperitoneally once a week for 3 weeks, or combination of the two agents. For tumor growth inhibition (FIG. 2A), compound activity was measured as the percent change in tumor volume of treated animals over control animals (% T/C). The percentage of regression was determined as the percent change in the final tumor volume at the end of the study over the starting tumor volume. For tumor growth delay (FIG. 2B), compound activity was measured as the change in median calculated time to the study end point (TTE), which was predefined as tumor volume of 1000 mm^3.

[2] = test system: 12 pancreatic cancer cell lines; test: Cell proliferation assay, panel summary; assay type: cell-based; settings: 3 days treatment
Description: The MTT is a colorimetric assay to determine the cell proliferation rate. The yellow tetrazolium MTT (3-(4, 5-dimethylthiazolyl-2)-2, 5-diphenyltetrazolium bromide) is reduced, by metabolically active cells, in part by the action of dehydrogenase enzymes, to generate reducing equivalents such as NADH and NADPH. The resulting intracellular purple formazan can be solubilized and quantified by spectrophotometric means. The signals produced is directly proportional to the cell numbers. Describing the MTT assay in detail, experiments were done using six-point or 9 point drug titrations in multi-well tissue culture dishes, with outer rows left empty. Cells were suspended in complete media at densities of between 10^3 and 10^4 cell/ml, respectively, and added per well. The appropriate medium (200 μl) was then added. […] This plate was incubated at 37° for 4 hours and the optical density was measured on a Molecular Devices Thermomax at 490 nm using the Softmax program. […]
Compound addition began 24 hours after seeding, the same time as the T0 determination. […] The MTS solution was added (as for the T0 plate) and read four hours later. […]
Pancreatic cancer cell lines were treated with DMSO vehicle control or varying concentrations of LBH589 for 3 days. Cell proliferation was measured on the day of cell plating and on the third day post-treatment. IC50 and LD50 values were calculated as described above.

`Cc1[nH]c2ccccc2c1CCNCc1ccc(/C=C/C(=O)NO)cc1` [LBH589, N-hydroxy-3-[4-[[[2-(2-methyl-1H-indol-3-yl)ethyl]-amino]methyl]phenyl]-2E-2-propenamide] was tested, and the “tumor growth inhibition (TGI) and tumor growth delay (TGD)” value [1] was “led to tumor growth inhibition (TGI) and tumor growth delay (TGD)”, the “Median TTE (time to study end point, tumor volume of 1000 mm^3)” value ([1]; vehicle 39.5 days) was 32.9 days and the IC50 values ([2]; all 12 pancreatic cancer cell lines) was “low nanomolar”. The LD50 ([2]; majority of the pancreatic cancer cell lines (n=10)) was < 1 µM.
